Among the test systems are MDA-N; SNB-75; HCT-116; KM12; SK-OV-3; MDA-MB-435; LOX IMVI; NCI-H522; NCI/ADR-RES; Malme-3M; MCF7; ACHN; BT-549; NCI-H460; UACC-257; DU-145; RXF 393; MDA-MB-231; CCRF-CEM; HCC 2998.
Holding throughout (test): inhibition of tumour cell growth, NCI panel, 48 h

Molecules are shown by their SMILES.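 Exposure lasted 48 hours, with cells grown in 96-well plates and compounds tested at five concentrations. Abbreviation: GI50, concentration required for 50% inhibition of growth.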 The source made the active and inactive calls. No stated cut-off is given here; in the data, active = GI50 up to about 1.1 µM and inactive = higher.

Turning to `COC1=CC(=O)c2c(c(COC(C)=O)cn2C)C1=O`, the GI50 in the assay with MDA-N was 0.0942 µM (active); with SNB-75, 0.308 µM (active); with HCT-116 it was 0.0347 µM (active); with KM12 it was 0.0962 µM (active); in the assay on SK-OV-3, 0.119 µM (active); in the assay on MDA-MB-435, 0.13 µM (active). In addition, the GI50 is 0.0887 µM (active) with LOX IMVI; 0.0158 µM (active) in the assay with NCI-H522; 0.061 µM (active) with NCI/ADR-RES; 0.0343 µM (active) with Malme-3M; 0.184 µM (active) with MCF7; 0.0306 µM (active) in the assay on ACHN. For the same molecule, the GI50 in the assay with BT-549 was 0.0208 µM (active); in the assay with NCI-H460 it was 0.115 µM (active); with UACC-257, 0.334 µM (active); in the assay with DU-145, 0.0457 µM (active); with RXF 393 it was 0.0809 µM (active); in the assay with MDA-MB-231, 0.389 µM (active). Besides, the GI50 with CCRF-CEM is 0.234 µM (active).

With `CC(=O)Oc1c(OC(C)=O)c(-c2ccc(O)c(O)c2)c(O)c(O)c1-c1ccc(O)cc1`, the GI50 was 97.5 µM (inactive) in the assay on SNB-75; > 100 µM (inactive) in the assay on HCT-116; > 100 µM (inactive) in the assay with KM12; > 100 µM (inactive) in the assay on SK-OV-3; > 100 µM (inactive) in the assay with HCC 2998; 29.9 µM (inactive) in the assay with LOX IMVI. Besides, the GI50 in the assay with NCI-H522 is 17.7 µM (inactive); in the assay with NCI/ADR-RES, > 100 µM (inactive); in the assay with MCF7, > 100 µM (inactive); in the assay on NCI-H460 it was > 100 µM (inactive); in the assay on UACC-257, > 100 µM (inactive); in the assay on CCRF-CEM, 61 µM (inactive).

Take `COc1ccc(CC(CO)NC(=O)OCc2ccccc2)cc1Oc1ccc(CC(CO)NC(=O)OCc2ccccc2)cc1` (stereo unspecified): the GI50 in the assay with MDA-N is 15.6 µM (inactive); in the assay on SNB-75, 0.37 µM (active); with HCT-116, 15.1 µM (inactive); in the assay on KM12, 12.2 µM (inactive); in the assay with SK-OV-3 it was 13.4 µM (inactive); in the assay on MDA-MB-435, 15.3 µM (inactive). The GI50 with HCC 2998 was 21.2 µM (inactive); in the assay with NCI-H522, 1.47 µM (inactive); with Malme-3M, 7.91 µM (inactive); in the assay with BT-549 it was 12.4 µM (inactive); in the assay with NCI-H460, 15.7 µM (inactive); in the assay with UACC-257, 17 µM (inactive). The results for the GI50 in the assay on DU-145, in the assay on MDA-MB-231 and in the assay on CCRF-CEM were 15.4 µM (inactive), 13.1 µM (inactive) and 5.77 µM (inactive), respectively.

On to `COc1nc(Cl)nc(N[C@H](C)c2c3ccccc3cc3ccccc23)n1`, for which the GI50 in the assay on MDA-N is 2.71 µM (inactive); in the assay on SNB-75, 21.8 µM (inactive); in the assay on HCT-116, 12.4 µM (inactive); with KM12, 11.7 µM (inactive); with SK-OV-3, 15.7 µM (inactive); in the assay on MDA-MB-435 it was 4.31 µM (inactive). The GI50 is 15.6 µM (inactive) with LOX IMVI; 7.6 µM (inactive) with NCI-H522; 14.2 µM (inactive) with NCI/ADR-RES; 14.2 µM (inactive) with MCF7; 17.8 µM (inactive) in the assay on ACHN; 18 µM (inactive) with BT-549. Moreover, the GI50 was 17 µM (inactive) in the assay with NCI-H460; 16 µM (inactive) with UACC-257; 12.4 µM (inactive) in the assay on DU-145; 12.5 µM (inactive) in the assay with RXF 393; 13.9 µM (inactive) in the assay with MDA-MB-231; 10.4 µM (inactive) with CCRF-CEM.

For `Cc1ccc(NC(=O)CC(=O)n2nc(-c3ccccc3)c(/N=N/c3ccccc3C(=O)O)c2-c2ccccc2)cc1`, the GI50 is > 100 µM (inactive) with HCT-116; > 100 µM (inactive) with KM12; > 100 µM (inactive) in the assay with SK-OV-3; 66.2 µM (inactive) in the assay on HCC 2998; > 100 µM (inactive) with LOX IMVI; > 100 µM (inactive) with NCI-H522. For the same molecule, the GI50 in the assay on Malme-3M is > 100 µM (inactive); with ACHN it was 51.5 µM (inactive); in the assay on RXF 393, > 100 µM (inactive).

On to `COc1ccc2oc3c(ccc[n+]3C)c(=O)c2c1`, for which the GI50 in the assay with MDA-N, in the assay with SNB-75, with HCT-116, in the assay with KM12, with SK-OV-3 and in the assay with MDA-MB-435 was > 100 µM (inactive) each time. The GI50 with HCC 2998, with LOX IMVI, with NCI-H522, with NCI/ADR-RES, in the assay with Malme-3M and with MCF7 was > 100 µM (inactive) in each case. Also, the GI50 with ACHN, with NCI-H460, in the assay on DU-145, in the assay with RXF 393, in the assay with MDA-MB-231 and with CCRF-CEM was > 100 µM (inactive) each time.

For the molecule `CCN(CC)CCCNC(=O)c1ccccc1Nc1c(Cl)cccc1Cl`, the GI50 with SNB-75 was 3.43 µM (inactive); with HCT-116 it was 11.5 µM (inactive); in the assay on SK-OV-3, 14.2 µM (inactive); in the assay on HCC 2998 it was 7.03 µM (inactive); in the assay with LOX IMVI, 8.55 µM (inactive); with ACHN, 10.2 µM (inactive). For the same molecule, the figures for the GI50 in the assay on UACC-257, with RXF 393 and in the assay on CCRF-CEM were 3.03 µM (inactive), 8.11 µM (inactive) and 6.32 µM (inactive), respectively.

On to `Cc1cccc2sc(-c3ccc(O)cc3)nc12`, for which the GI50 in the assay on MDA-N is 3.97 µM (inactive); in the assay on SNB-75, 12.6 µM (inactive); with HCT-116, 15.6 µM (inactive); with KM12, 15.5 µM (inactive); in the assay with SK-OV-3 it was 19.6 µM (inactive); in the assay with MDA-MB-435, 11 µM (inactive). The GI50 in the assay with LOX IMVI is 18.4 µM (inactive); with NCI-H522, 16.3 µM (inactive); in the assay on NCI/ADR-RES, 19.3 µM (inactive); with Malme-3M it was 16.9 µM (inactive); in the assay on MCF7, 12.2 µM (inactive); in the assay with ACHN, 16.5 µM (inactive). Also, the GI50 was 11.8 µM (inactive) in the assay with BT-549; 18.1 µM (inactive) in the assay on NCI-H460; 18.8 µM (inactive) with UACC-257; 17.8 µM (inactive) in the assay on DU-145; 16.9 µM (inactive) with RXF 393; 19.8 µM (inactive) in the assay with MDA-MB-231. Besides, the GI50 in the assay with CCRF-CEM was 16.9 µM (inactive).

Consider `O=C1CN2Cc3cc(N4CCOCC4)ccc3N=C2N1`, for which the GI50 was 31.5 µM (inactive) in the assay on SNB-75; 21.3 µM (inactive) in the assay on HCT-116; 43.3 µM (inactive) in the assay with KM12; 25.8 µM (inactive) in the assay on SK-OV-3; 22.9 µM (inactive) with MDA-MB-435; > 100 µM (inactive) in the assay with LOX IMVI. The GI50 was 31.3 µM (inactive) with NCI/ADR-RES; 89.1 µM (inactive) with Malme-3M; 60.8 µM (inactive) with MCF7; > 100 µM (inactive) with BT-549; 41.5 µM (inactive) in the assay with NCI-H460; 89.1 µM (inactive) in the assay on UACC-257. In addition, the GI50 was 49.5 µM (inactive) with DU-145, 73.3 µM (inactive) in the assay on RXF 393, 88.1 µM (inactive) in the assay on MDA-MB-231 and 5.43 µM (inactive) in the assay with CCRF-CEM.

`O=c1cnn(C/C=C/CP(=O)(O)O)c(=O)[nH]1`: the GI50 with MDA-N, with SNB-75, in the assay on KM12, with MDA-MB-435, in the assay with HCC 2998 and in the assay on LOX IMVI was > 100 µM (inactive) each time. The GI50 in the assay on NCI-H522 is > 100 µM (inactive); in the assay on NCI/ADR-RES, > 100 µM (inactive); in the assay with Malme-3M, > 100 µM (inactive); in the assay on MCF7, > 100 µM (inactive); with ACHN, 97.1 µM (inactive); in the assay on BT-549 it was > 100 µM (inactive). Besides, the GI50 is > 100 µM (inactive) with NCI-H460; > 100 µM (inactive) in the assay on UACC-257; > 100 µM (inactive) in the assay on DU-145; > 100 µM (inactive) in the assay on RXF 393; > 100 µM (inactive) with MDA-MB-231; > 10 µM (inactive) in the assay on CCRF-CEM.

As for `O=C(Nc1ccc(I)cc1C(=O)NCCO)c1cccs1`, the GI50 with HCT-116, in the assay with KM12, with SK-OV-3, in the assay with MDA-MB-435, in the assay with HCC 2998 and in the assay with LOX IMVI was > 100 µM (inactive) in each case. Moreover, the GI50 in the assay with NCI-H522 was > 100 µM (inactive); with NCI/ADR-RES, > 100 µM (inactive); in the assay with MCF7 it was > 100 µM (inactive); in the assay on ACHN, > 100 µM (inactive); in the assay with BT-549, > 100 µM (inactive); in the assay with NCI-H460 it was 85.3 µM (inactive). In addition, the GI50 in the assay with UACC-257, in the assay on RXF 393 and in the assay with CCRF-CEM was > 100 µM (inactive) in each case.

On to `CCOC(=O)C(C)OC(=O)c1ccc(C)cc1` (stereo unspecified), for which the GI50 in the assay on SNB-75, in the assay on HCT-116, with KM12, with SK-OV-3, with HCC 2998 and in the assay on LOX IMVI was > 100 µM (inactive) in each case. Besides, the GI50 with NCI-H522, with Malme-3M, in the assay with ACHN, in the assay on NCI-H460, in the assay on UACC-257 and with RXF 393 was > 100 µM (inactive) each time. In addition, the GI50 in the assay on CCRF-CEM is > 100 µM (inactive).

For the origin of these results see ChEMBL document CHEMBL1201862, “PubChem BioAssay data set” (2004).
